Test results taken from publication PMC5485725, “QueF-Like, a Non-Homologous Archaeosine Synthase from the Crenarchaeota” (Biomolecules, 2017).

Biological target: T1, QueF-like (QueF-L) from Pyrobaculum calidifontis (Pyrobaculum calidifontis, UniProt A3MSP1)
T1 construct: codon-optimized synthetic gene in FactorXa/LIC vector (pLBI14), expressed in E. coli BL21(DE3); N-terminal His6 tag cut by Factor Xa; starts at Met1 (primer encodes MLKVSK..., ends ...PPVYI); decamer
T1 sequence (A3MSP1 1-109): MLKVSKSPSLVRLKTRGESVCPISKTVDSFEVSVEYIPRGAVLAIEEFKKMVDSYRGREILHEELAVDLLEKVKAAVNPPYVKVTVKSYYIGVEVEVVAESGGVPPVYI
Assay: UV-Vis titration of thioimide absorbance at […] nm
Format: binding
Conditions: read-out: apparent KD

N#Cc1c[nH]c2nc(N)[nH]c(=O)c12 [preQ0]
Kd: 8 µM
